# According to US9139577B2, “Sulfoximine substituted quinazolines for pharmaceutical compositions” (Boehringer Ingelheim International GmbH, priority 2013, dated 2015):
# Target: MNK2a (Homo sapiens (Human), UniProt Q9HBH9)
# Test: MNK2a in vitro kinase assay (Assay 2), ADP-Glo
# Assay type: biochemical
# Conditions: read-out: MNK2 IC50
# Protocol: B. MNK2a In vitro Kinase Assay (Assay 2)
# ASSAY SETUP: The inhibition of kinase activity of MNK2a was assessed using pre-activated GST-MNK2a. The white, 384-well OptiPlate F plates were purchased from PerkinElmer. The ADP-Glo Kinase Assay (including ultra pure ATP) was purchased from Promega (V9103). Activated MNK2a was obtained as described in WO2011/104340. […] ID No. 5 of WO 2011/104340 by the C-terminal —CONH2 group, was purchased from Thermo Fisher Scientific. All other materials were of highest grade commercially available. Compounds are tested in either serial dilutions or single dose concentrations. The compound stock solutions are 10 mM in 100% DMSO The serial compound dilutions are prepared in 100% DMSO followed by 1:27.3 intermediate dilution in assay buffer. The final DMSO concentration in assay will be <3%. In the 384-well plates 3 μl of test compound from the intermediate dilution is mixed with 4 μl of the activated MNK2 enzyme (final concentration of 10 nM) and 4 μl of the peptide (final concentration of 25 μM)/ultra pure ATP (final concentration of 20 μM), all dissolved in assay buffer. This step is followed by an incubation time of 90 min, then 10 μl of ADP Glo reagent are added, followed by 40 min of incubation. Then 20 μl of kinase detection reagent are admixed. The plates are sealed and after an incubation period of 30 min, the luminescence signal is measured in an Envision reader to determine the amount of produced ADP. All incubation steps are performed at room temperature. The assay buffer consists of 20 mM HEPES, 2 mM DTT, 0.01% BSA, 20 mM MgCl2 and 0.1% Pluronic F-127.
# The luminescent signal generated is proportional to the ADP concentration produced and is correlated with activated MNK2 activity. The analysis of the data is performed by the calculation of the percentage of ATP consumption of activated MNK2 in the presence of the test compound compared to the consumption of ATP in the presence of activated MNK2 without compound. (RLU(sample)−RLU(low control))*100/(RLU(high value)−RLU(low control)) [RLU=relative luminescence units]
# […] values based on dose response curves are calculated with the AssayExplorer software.
# Chain of MNK2a (Q9HBH9 whole entry): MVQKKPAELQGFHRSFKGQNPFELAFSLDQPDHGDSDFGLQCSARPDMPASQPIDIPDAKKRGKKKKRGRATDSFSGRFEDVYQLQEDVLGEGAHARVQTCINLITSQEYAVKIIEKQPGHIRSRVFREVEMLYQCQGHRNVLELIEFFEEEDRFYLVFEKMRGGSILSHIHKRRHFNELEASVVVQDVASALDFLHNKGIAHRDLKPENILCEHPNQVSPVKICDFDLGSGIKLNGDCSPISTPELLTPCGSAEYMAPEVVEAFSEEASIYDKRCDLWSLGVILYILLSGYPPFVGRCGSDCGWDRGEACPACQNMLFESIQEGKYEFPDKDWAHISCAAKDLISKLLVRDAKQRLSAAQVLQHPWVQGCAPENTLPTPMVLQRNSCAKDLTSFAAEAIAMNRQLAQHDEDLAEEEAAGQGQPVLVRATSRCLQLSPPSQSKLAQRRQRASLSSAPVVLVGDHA
row,Structure (SMILES),IC50 [nM]
1,C[C@H](NC(=O)[C@@H](C)Oc1cc(F)ccc1Nc1ncnc2cc(N=S3(=O)CCC3)cc(C(F)F)c12)C(F)(F)F [Example 4.143],2
2,Cc1cc(N=S(C)(C)=O)cc2ncnc(Nc3ccc(F)cc3OC(C)Cn3ccnc3)c12 (stereo not drawn) [Example 3.004],17
3,C[C@@H](Oc1cc(F)ccc1Nc1ncnc2cc(N=S(C)(C)=O)cc(Cl)c12)C(=O)NCCF [Example 4.078],2
4,Cc1cc(N=S(C)(C)=O)cc2ncnc(Nc3ccc(F)cc3O[C@H](C)C(=O)N3CCC(=O)CC3)c12 [Example 4.046],15
5,Cc1cc(N=S2(=O)CCC2)cc2ncnc(Nc3ccc(F)cc3O[C@H](C)C(=O)NCCC(F)(F)F)c12 [Example 4.089],1
6,Cc1cc(N=S2(=O)CCC2)cc2ncnc(Nc3ccc(Cl)cc3O[C@H](C)C(=O)N[C@H](C)C(F)(F)F)c12 [Example 4.145],2
7,C[C@@H](Oc1cc(F)ccc1Nc1ncnc2cc(N=S(C)(C)=O)cc(F)c12)C(=O)NC(CF)CF [Example 4.121],5
8,COc1cc(N=S2(=O)CCC2)cc2ncnc(Nc3ccc(F)cc3O[C@H](C)C(=O)NCC(F)F)c12 [Example 6.002],2
9,Cc1cc(N=S2(=O)CCC2)cc2ncnc(Nc3ccc(F)cc3O[C@H](C)C(=O)NC(CF)CF)c12 [Example 4.131],1
10,Cc1cc(N=S(C)(C)=O)cc2ncnc(Nc3ccc(F)cc3O[C@H](C)C(=O)NCC#N)c12 [Example 4.039],1
11,Cc1cc(N=S2(=O)CCC2)cc2ncnc(Nc3ccc(F)cc3O[C@H](CO)CF)c12 [Example 2.036],4
12,C[C@@H](Oc1ncccc1Nc1ncnc2cc(N=S(C)(C)=O)cc(F)c12)C(=O)NCC(F)(F)F [Example 2.031],10
13,Cc1cc(N=S2(=O)CCC2)cc2ncnc(Nc3ccc(Cl)cc3O[C@H](C)C(=O)N[C@@H](C)C(F)(F)F)c12 [Example 4.079],1
14,Cc1cc(N=S(C)(C)=O)cc2ncnc(Nc3ccc(F)cc3O[C@H](C)C(=O)NCC(F)(F)C(F)(F)F)c12 [Example 4.119],2
15,Cc1cc(N=S(C)(C)=O)cc2ncnc(Nc3ccc(F)cc3O[C@H](C)C(=O)NCC(F)F)c12 [Example 4.036],1
16,COc1cc(N=S(C)(C)=O)cc2ncnc(Nc3cccnc3O[C@H](C)C(=O)NCC(F)(F)F)c12 [Example 6.004],3
17,Cc1cc(N=S2(=O)CC(C)(C)C2)cc2ncnc(Nc3ccc(F)cc3O[C@H](C)C(=O)NCC(F)(F)F)c12 [Example 2.044],1
18,C[C@H](NC(=O)[C@@H](C)Oc1cc(F)ccc1Nc1ncnc2cc(N=S(C)(C)=O)cc(Cl)c12)C(F)(F)F [Example 4.135],2
19,Cc1cc(N=S(C)(C)=O)cc2ncnc(Nc3ccc(F)cc3O[C@H](C)C(=O)N(CC(F)(F)F)CC(F)(F)F)c12 [Example 3.055],3
20,C[C@@H](Oc1cc(F)ccc1Nc1ncnc2cc(N=S(C)(C)=O)cc(F)c12)C(=O)NCC(F)F [Example 4.133],4
21,Cc1cc(N=S2(=O)CCC2)cc2ncnc(Nc3ccc(F)cc3O[C@H](CO)C(F)(F)F)c12 [Example 2.043],2
22,Cc1cc(N=S(C)(C)=O)cc2ncnc(Nc3ccc(F)cc3O[C@H](C)C(=O)N[C@@H](C)C(F)(F)F)c12 [Example 4.127],2
23,Cc1cc(N=S2(=O)CCC(O)C2)cc2ncnc(Nc3ccc(F)cc3O[C@H](C)C(=O)NCC(F)(F)F)c12 (stereo partly drawn) [Example 2.023],2
24,CC#CCNC(=O)[C@@H](C)Oc1cc(F)ccc1Nc1ncnc2cc(N=S(C)(C)=O)cc(C)c12 [Example 4.066],9
25,CC(C)Oc1ncccc1Nc1ncnc2cc(N=S(C)(C)=O)cc(F)c12 [Example 2.015],190
26,Cc1cc(N=S2(=O)CCCC2)cc2ncnc(Nc3cccnc3O[C@H](C)C(=O)NCC(F)(F)F)c12 [Example 2.022],2
27,C[C@@H](Oc1cc(F)ccc1Nc1ncnc2cc(N=S3(=O)CCC3)cc(F)c12)C(=O)NCC(F)(F)C(F)(F)F [Example 4.129],2
